Measured values reported in ChEMBL document CHEMBL5360570, “Discovery of pyrazolo[3,4-b]pyridine derivatives as novel and potent Mps1 inhibitors for the treatment of cancer” (Eur J Med Chem, 2023).

What was measured:
MDA-MB-231 = experiment: Antiproliferative activity against human MDA-MB-231 cells assessed inhibition of cell growth incubated for 72 hrs by CCK-8 assay; assay type: functional
[1] = target: T1, Dual specificity protein kinase TTK (Homo sapiens) (UniProt P33981); experiment: Inhibition of Mps1 (unknown origin) at 1000 nM pretreated for 10 mins followed by substrate addition and measured after 60 mins in presence of ATP by ADP-glo kinase assay relative to control; conditions: time 70.0 min
T1 sequence (whole entry): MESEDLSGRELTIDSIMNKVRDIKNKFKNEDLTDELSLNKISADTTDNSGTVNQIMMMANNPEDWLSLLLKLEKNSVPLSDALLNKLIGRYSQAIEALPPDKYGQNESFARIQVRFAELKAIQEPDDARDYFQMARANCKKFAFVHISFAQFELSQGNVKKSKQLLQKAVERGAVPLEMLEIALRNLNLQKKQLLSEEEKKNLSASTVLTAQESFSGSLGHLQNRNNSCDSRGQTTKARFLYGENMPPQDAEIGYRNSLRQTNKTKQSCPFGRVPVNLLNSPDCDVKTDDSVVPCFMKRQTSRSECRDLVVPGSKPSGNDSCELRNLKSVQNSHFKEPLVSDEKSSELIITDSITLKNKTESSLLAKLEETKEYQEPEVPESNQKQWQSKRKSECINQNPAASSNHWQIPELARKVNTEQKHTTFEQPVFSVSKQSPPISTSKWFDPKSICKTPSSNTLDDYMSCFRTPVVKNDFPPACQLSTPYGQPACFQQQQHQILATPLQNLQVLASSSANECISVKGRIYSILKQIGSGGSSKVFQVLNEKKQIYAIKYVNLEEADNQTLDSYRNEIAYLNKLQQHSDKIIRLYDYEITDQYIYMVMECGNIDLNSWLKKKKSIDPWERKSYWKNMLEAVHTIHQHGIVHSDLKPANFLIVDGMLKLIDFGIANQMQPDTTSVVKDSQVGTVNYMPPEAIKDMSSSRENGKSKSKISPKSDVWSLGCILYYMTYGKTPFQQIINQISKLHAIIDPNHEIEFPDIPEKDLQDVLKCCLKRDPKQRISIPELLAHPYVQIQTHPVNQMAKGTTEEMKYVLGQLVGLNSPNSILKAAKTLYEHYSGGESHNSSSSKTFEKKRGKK

MCF7 = experiment: Antiproliferative activity against human MCF7 cells assessed inhibition of cell growth incubated for 72 hrs by CCK-8 assay relative to control; assay type: functional
MV4-11 = experiment: Antiproliferative activity against human MV4-11 cells assessed inhibition of cell growth incubated for 72 hrs by CCK-8 assay relative to control; assay type: functional
MDA-MB-468 [2] = experiment: Antiproliferative activity against human MDA-MB-468 cells assessed inhibition of cell growth at 2 uM incubated for 72 hrs by CCK-8 assay relative to control; assay type: functional
[3] = Antiproliferative activity against human RBE cells assessed inhibition of cell growth incubated for 72 hrs by CCK-8 assay relative to control; assay type: functional
[4] = target: T2, Dual specificity protein kinase TTK (Homo sapiens, UniProt P33981); experiment: Inhibition of Mps1 (unknown origin) pretreated for 10 mins followed by substrate addition and measured after 60 mins in presence of ATP by ADP-glo kinase assay
T2 sequence (P33981 whole entry): T1 sequence (whole entry)

[5] = target: T2, Dual specificity protein kinase TTK; experiment: Inhibition of MPS1 (unknown origin)
MDA-MB-468 [6] = experiment: cells; assay type: functional, cell-based; conditions: Homo sapiens, MDA-MB-468, 72 h
Description: Antiproliferative activity against human MDA-MB-468 cells assessed inhibition of cell growth incubated for 72 hrs by CCK-8 assay

MDA-MB-468 [7] = experiment: Antitumor activity against human MDA-MB-468 cells xenografted in BALB/c nude mouse assessed as tumor growth inhibition at 30 mg/kg, iv administered once daily for 21 days; assay type: functional; conditions: MDA-MB-468, 504 h, time 21 day, read-out: TGI
HCT-116 = experiment: Antitumor activity against human HCT-116 cells xenografted in mouse assessed as tumor growth inhibition at 6.5 mg/kg, po; assay type: functional; conditions: read-out: TGI
[8] = Metabolic stability in human liver microsome assessed as intrinsic clearance preincubated for 10 mins followed by NADPH addition and measured upto 60 mins by LC-MS/MS analysis; assay type: ADME; conditions: liver microsomes, time < 70 min, read-out: CLH
[9] = Metabolic stability in human liver microsome assessed as half life preincubated for 10 mins followed by NADPH addition and measured upto 60 mins by LC-MS/MS analysis; assay type: ADME; conditions: liver microsomes, time < 70 min
[10] = Metabolic stability in human microsome assessed as intrinsic clearance preincubated for 10 mins followed by NADPH addition and measured upto 60 mins by LC-MS/MS analysis; assay type: ADME; conditions: microsomes, time < 70 min

Row | Compound | inhibition [1] | IC50 [4] | inhibition (INH) (MDA-MB-231) | inhibition (INH) (MCF7) | inhibition (INH) (MV4-11) | inhibition at 2 µM (MDA-MB-468 [2]) | inhibition (INH) [3] | also measured
1 | COc1cc(N2CCC(N(C)C)CC2)ccc1Nc1nc(OC2CCCCC2)c2c(-c3ccc(OC)c(OC)c3)n[nH]c2n1 | 70.7% |  | 66.51% | 25.38% | 20.47% | 68.5% | 28.45% | 
2 | COCCCNC(=O)c1cc(-c2ccc(OC)c(OC)c2)nc2[nH]nc(-c3ccc(OC)cc3)c12 |  |  |  |  |  |  |  | IC50 [5]: 391 nM
3 | COc1cccc(-c2n[nH]c3nc(Nc4ccc(N5CCC(N(C)C)CC5)cc4OC)nc(OC4CCCC4)c23)c1 | 44.5% |  | 22.71% | 22.33% | -1.1% | 2.34% | 4.83% | 
4 | COc1cc(N2CCN(C(C)=O)CC2)ccc1Nc1nc(OC2CCCC2)c2c(-c3ccc(OC)c(OC)c3)n[nH]c2n1 | 51.2% |  | 26.44% | 17.16% | 8.63% | 81.5% | 39.75% | IC50 (MDA-MB-468 [6]): 1000 nM
5 | C=CC(=O)Nc1cc(N2CCN(C(C)=O)CC2)ccc1Nc1nc(-c2cc3n(c2)CCN(c2c(CC)cccc2CC)C3=O)c2cn[nH]c2n1 |  | > 1000 nM |  |  |  | 0.38% |  | 
6 | COc1ccc(Oc2cc(NCCC(F)(F)F)c3ncc(-c4ccc(C(=O)NC5CC5)c(C)c4)n3n2)c(F)c1F [BAY-1217389] |  |  | 61.14% |  |  |  |  | inhibition in vivo at 30 mg/kg (MDA-MB-468 [7]): 67%
7 | Cc1cc(-c2cnn3c(NC[C@H]4C[C@@](C)(O)C4)cc(Oc4cccnc4)nc23)ccc1C(=O)NC1CC1 [LUVIXASERTIB] |  |  |  |  |  |  |  | inhibition in vivo at 6.5 mg/kg (HCT-116): 68%
8 | COc1cc(OC2CCN(C)CC2)ccc1Nc1ncc2c(n1)n(C1CCCC1)c(=O)n2C |  |  | 57.08% |  |  |  |  | IC50 (MDA-MB-468 [6]): 2100 nM
9 | O=C(O)Cc1ccccc1Nc1c(Cl)cccc1Cl [DICLOFENAC] |  |  |  |  |  |  |  | CLint scaled [8]: 113 mL/min/kg; half-life [9]: 11 min; microsomal CLint [10]: 126 µL/min/mg
10 | COc1cc(N2CCC(N(C)C)CC2)ccc1Nc1nc(OC2CC2)c2c(-c3ccc(OC)c(OC)c3)n[nH]c2n1 | 63.9% |  | 35.24% | 20.26% | -17.18% | 30% | 14.2% | 
11 | COc1cc(N2CCOCC2)ccc1Nc1nc(OC2CCCC2)c2c(-c3ccc(OC)c(OC)c3)n[nH]c2n1 | 59.9% |  | 21.19% | 10.48% | -22.73% | 69.7% | 11.97% | IC50 (MDA-MB-468 [6]): 2090 nM
12 | COc1ccc(-c2n[nH]c3nc(Nc4ccccc4)nc(OC4CCCC4)c23)cc1OC | 15.2% |  | 26.44% | 4.54% | -13.46% | 19.9% | 4.28% | 
13 | COc1cc(N2CCCCC2)ccc1Nc1nc(OC2CCCC2)c2c(-c3ccc(OC)c(OC)c3)n[nH]c2n1 | 49.1% |  | 25.74% | 16.66% | -21.2% | -3.15% | 16.61% | 
14 | COc1ccc(-c2n[nH]c3nc(Nc4ccc(N5CCC(N(C)C)CC5)cc4OC)nc(OC4CCCC4)c23)cc1 | 35.7% |  | 10.57% | 10.76% | -10.86% | 5.57% | 7.85% | 
15 | COc1cc(N2CCC(N(C)C)CC2)ccc1Nc1nc(OC2CCCC2)c2c(-c3ccc(OC)c(OC)c3)n[nH]c2n1 | 84.7% | 4.84 nM | 72.16% | 25.87% | 21.89% | 94.3% | 36.32% | IC50 (MDA-MB-468 [6]): 1270 nM

Continued, in another order:

Row | inhibition [1] | IC50 [4] | Compound | inhibition (INH) (MDA-MB-231) | inhibition (INH) (MCF7) | inhibition (INH) (MV4-11) | inhibition at 2 µM (MDA-MB-468 [2]) | inhibition (INH) [3] | also measured
16 |  | 3.37 nM | CCc1cccc(CC)c1NC(=O)c1ccn(-c2nc(Nc3ccc(N4CCN(C)CC4)cc3OC)nc3[nH]ncc23)c1 |  |  |  | 64.3% |  | 
17 |  | 3.81 nM | COc1cc(N2CCN(C)CC2)ccc1Nc1nc(-n2ccc(C(=O)Nc3c(C)cccc3C)c2)c2cn[nH]c2n1 |  |  |  |  |  | IC50 (MDA-MB-468 [6]): 857 nM
18 |  | 8.52 nM | COc1cc(N2CCN(C(C)=O)CC2)ccc1Nc1nc(-n2ccc(C(=O)Nc3c(C)cccc3C)c2)c2cn[nH]c2n1 |  |  |  | 34.8% |  | 
19 |  | 6.14 nM | CCc1cccc(CC)c1N1CCn2cc(-c3nc(Nc4ccc(N5CCOCC5)cc4OC)nc4[nH]ncc34)cc2C1=O |  |  |  |  |  | IC50 (MDA-MB-468 [6]): 663 nM
20 |  | > 1000 nM | CCc1cccc(CC)c1NC(=O)c1ccn(-c2nc(Nc3ccc(N4CCN(C(C)=O)CC4)cc3NC(C)=O)nc3[nH]ncc23)c1 |  |  |  | -2.92% |  | 
21 |  | > 1000 nM | CCC(=O)Nc1cc(N2CCN(C(C)=O)CC2)ccc1Nc1nc(-n2ccc(C(=O)Nc3c(CC)cccc3CC)c2)c2cn[nH]c2n1 |  |  |  | -3.96% |  | 
22 |  | > 1000 nM | C=CC(=O)Nc1cc(N2CCN(C(C)=O)CC2)ccc1Nc1nc(-n2ccc(C(=O)Nc3c(CC)cccc3CC)c2)c2cn[nH]c2n1 |  |  |  | -2.46% |  | 
23 |  | 4.03 nM | CCc1cccc(CC)c1NC(=O)c1ccn(-c2nc(Nc3ccc(N4CCN(C(C)=O)CC4)cc3OC)nc3[nH]ncc23)c1 |  |  |  |  |  | IC50 (MDA-MB-468 [6]): 371 nM
24 |  | > 1000 nM | C#CC(=O)Nc1cc(N2CCN(C(C)=O)CC2)ccc1Nc1nc(-n2ccc(C(=O)Nc3c(CC)cccc3CC)c2)c2cn[nH]c2n1 |  |  |  | 7.17% |  | 
25 |  | > 1000 nM | C=C(F)C(=O)Nc1cc(N2CCN(C(C)=O)CC2)ccc1Nc1nc(-n2ccc(C(=O)Nc3c(CC)cccc3CC)c2)c2cn[nH]c2n1 |  |  |  | -1.41% |  | 
26 |  | > 1000 nM | CC#CC(=O)Nc1cc(N2CCOCC2)ccc1Nc1nc(-n2ccc(C(=O)Nc3c(CC)cccc3CC)c2)c2cn[nH]c2n1 |  |  |  | -0.47% |  | 
27 |  | > 1000 nM | C=CC(=O)Nc1cc(NC(=O)CC)ccc1Nc1nc(-n2ccc(C(=O)Nc3c(CC)cccc3CC)c2)c2cn[nH]c2n1 |  |  |  | 5.51% |  | 
28 |  | > 1000 nM | C=CC(=O)Nc1cc(N2CCOCC2)ccc1Nc1nc(-c2cc3n(c2)CCN(c2c(CC)cccc2CC)C3=O)c2cn[nH]c2n1 |  |  |  |  |  | IC50 (MDA-MB-468 [6]): 2620 nM
29 | 63.9% |  | COc1cc(N2CCN(C)CC2)ccc1Nc1nc(OC2CCCC2)c2c(-c3ccc(OC)c(OC)c3)n[nH]c2n1 | 24.33% | 17.07% | -3.55% | 40.7% | 4.83% | 
30 |  | > 1000 nM | CCc1cccc(CC)c1NC(=O)c1ccn(-c2nc(Nc3ccc(N4CCOCC4)cc3N3CCN(C)CC3)nc3[nH]ncc23)c1 |  |  |  | -1.94% |  | 
